Columns and labels:
Assay type in all cases: physicochemical
[1] = Stability of Selexipag amorphous form on storage, Chromatographic Purity (by HPLC)
Experimental: (§1) In another aspect of the present invention, Selexipag amorphous form is stable at 5±3° C. and 25±2° C./RH (Relative humidity) 60±5%, 40±2° C./RH (Relative humidity) 75±5% and has the following stability data: […]

[2] = Storage stability of Selexipag amorphous form (statement); details: at 5±3° C. and 25±2° C./RH 60±5%, 40±2° C./RH 75±5%
Experimental: as §1

[3] = Stability of Selexipag amorphous form on storage, solid form by PXRD
Experimental: X-ray powder diffraction spectrum was measured on a bruker axs D8 advance X-ray powder diffractometer having a copper-a radiation. Adequate sample was gently flattered on a sample holder and scanned from 2 to 50 degrees two-theta, at 0.02 increment and scan speed of 0.2 Sec/Step. The sample was simply placed on the sample holder. The sample was rotated at 30 rpm at a voltage 40 KV and current 35 mA. In another aspect of the present invention, Selexipag amorphous form is stable at 5±3° C. and 25±2° C./RH (Relative humidity) 60±5%, 40±2° C./RH (Relative humidity) 75±5% and has the following stability data: […]

[4] = 25 ± 2° C./RH 60 ± 5%, 1st month
[5] = 25 ± 2° C./RH 60 ± 5%, 2nd Month
[6] = 25 ± 2° C./RH 60 ± 5%, 3rd Month
[7] = 25 ± 2° C./RH 60 ± 5%, 4th Month
[8] = 25 ± 2° C./RH 60 ± 5%, 5th Month
[9] = 40 ± 2° C./RH 75 ± 5%, 1st month
[10] = 40 ± 2° C./RH 75 ± 5%, 2nd Month
[11] = 40 ± 2° C./RH 75 ± 5%, 3rd Month

## CC(C)N(CCCCOCC(=O)NS(C)(=O)=O)c1cnc(-c2ccccc2)c(-c2ccccc2)n1 [Selexipag amorphous form, 2-{4-[(5,6-diphenylpyrazin-2-yl)(isopropyl)amino]butoxy}-N-(methylsulfonyl)acetamide]
[1]; 5 ± 3° C., 1st month
  Chromatographic Purity (by HPLC): 99.63
[1]; 5 ± 3° C., 2nd Month
  Chromatographic Purity (by HPLC): 99.66
[1]; 5 ± 3° C., 3rd Month
  Chromatographic Purity (by HPLC): 99.76
[1]; 5 ± 3° C., 4th Month
  Chromatographic Purity (by HPLC): 99.76
[1]; 5 ± 3° C., 5th Month
  Chromatographic Purity (by HPLC): 99.70
[1]; 5 ± 3° C., 6th Month
  Chromatographic Purity (by HPLC): 99.76
[1]; 5 ± 3° C., Initial
  Chromatographic Purity (by HPLC): 99.63
[1]; [4]
  Chromatographic Purity (by HPLC): 99.63
[1]; [5]
  Chromatographic Purity (by HPLC): 99.59
[1]; [6]
  Chromatographic Purity (by HPLC): 99.72
[1]; [7]
  Chromatographic Purity (by HPLC): 99.78
[1]; [8]
  Chromatographic Purity (by HPLC): 99.69
[1]; 25 ± 2° C./RH 60 ± 5%, 6th Month
  Chromatographic Purity (by HPLC): 99.68
[1]; 25 ± 2° C./RH 60 ± 5%, Initial
  Chromatographic Purity (by HPLC): 99.63
[1]; [9]
  Chromatographic Purity (by HPLC): 99.62
[1]; [10]
  Chromatographic Purity (by HPLC): 99.58
[1]; [11]
  Chromatographic Purity (by HPLC): 99.66
[1]; 40 ± 2° C./RH 75 ± 5%, 4th Month
  Chromatographic Purity (by HPLC): 99.69
[1]; 40 ± 2° C./RH 75 ± 5%, 5th Month
  Chromatographic Purity (by HPLC): 99.66
[1]; 40 ± 2° C./RH 75 ± 5%, 6th Month
  Chromatographic Purity (by HPLC): 99.65
[1]; 40 ± 2° C./RH 75 ± 5%, Initial
  Chromatographic Purity (by HPLC): 99.63
[2]
  stability on storage: stable
[3]; 5 ± 3° C., 1st month
  PXRD: Amorphous
[3]; 5 ± 3° C., 2nd Month
  PXRD: Amorphous
[3]; 5 ± 3° C., 3rd Month
  PXRD: Amorphous
[3]; 5 ± 3° C., 4th Month
  PXRD: Amorphous
[3]; 5 ± 3° C., 5th Month
  PXRD: Amorphous
[3]; 5 ± 3° C., 6th Month
  PXRD: Amorphous
[3]; 5 ± 3° C., Initial
  PXRD: Amorphous
[3]; [4]
  PXRD: Amorphous
[3]; [5]
  PXRD: Amorphous
[3]; [6]
  PXRD: Amorphous
[3]; [7]
  PXRD: Amorphous
[3]; [8]
  PXRD: Amorphous
[3]; 25 ± 2° C./RH 60 ± 5%, Initial
  PXRD: Amorphous
[3]; [9]
  PXRD: Amorphous
[3]; [10]
  PXRD: Amorphous
[3]; [11]
  PXRD: Amorphous
[3]; 40 ± 2° C./RH 75 ± 5%, Initial
  PXRD: Amorphous

Source: patent US10815204B2, “Process for the preparation of diphenylpyrazine derivatives” (HONOUR (R&D), priority 2016, dated 2020)
